Measurements: paper PMC8377175, “Antidiabetic effect of bio-enhanced preparation of turmeric in streptozotocin-nicotinamide induced type 2 diabetic Wistar rats” (Journal of Ayurveda and Integrative Medicine, 2021)
Marks after values point to notes of the source that are not given here.

Assays:
[1] = tested on: streptozotocin-nicotinamide induced type 2 diabetic Wistar rats; test: Fasting serum insulin (DRG Rat insulin ELISA Kit) in STZ-NA diabetic rats; format: in vivo; settings: 30 days, mean ± SD
Procedure: Wistar rats were divided into seven groups, each group had six rats. Treatment for all the groups was started on the 4th day after diabetes induction procedure. The same was considered as Day 1 for treatment and continued for 30 days. The animals were treated for 30 days. The treatment schedule of various groups were as follows: Normal control (NC) (1 mL of 1% Tween 80, per oral), Diabetic control (DC) (1 mL of 1% Tween 80, per oral), two Standard control groups were treated with GLIB (5 mg/kg, per oral) and MET (500 mg/kg, per oral), two test groups were treated with bio-BTE (30 mg/kg, per oral and 60 mg/kg, per oral) and one test group was treated with RTE (30 mg/kg, per oral). The vehicle used for the study in all the groups were 1% Tween 80. Oral feeding of drugs was done using steel oral gavage tube (16 G, 7.6 cm). […]
FBG was estimated in all rats before administration of STZ and NA and had FBG level less than 126 mg/dl. […] FBG values were measured at 0 min (before glucose administration) and OGTT readings (OG1 and OG2) were measured at 60 and 120 min after administration of glucose solution. […] On Day 30 of treatment, FBG was measured and after anaesthetizing rats with ether, blood was collected from overnight fasted rats using cardiac puncture into red-coloured procoagulant vacutainers and centrifuged at 3000 rpm for 7 min to obtain serum. […]

[2] = tested on: streptozotocin-nicotinamide induced type 2 diabetic Wistar rats; test: Fasting blood glucose and oral glucose tolerance test in STZ-NA diabetic rats; format: in vivo; settings: mean ± SD; for OG1 (OGTT 60 min), Day 29 Readings (after treatment) / OG2 (OGTT 120 min), Day 29 Readings (after treatment) / OG1 (OGTT 60 min), Day 1 Readings (baseline) / OG2 (OGTT 120 min), Day 1 Readings (baseline): glucose 2 g/kg; for OG1 (OGTT 60 min), Day 29 Readings (after treatment) / OG2 (OGTT 120 min), Day 29 Readings (after treatment) / FBG, Day 29 Readings (after treatment) / FBG, Day 1 Readings (baseline) / OG1 (OGTT 60 min), Day 1 Readings (baseline) / OG2 (OGTT 120 min), Day 1 Readings (baseline): n = 6; for FBG, Day 1 Readings (baseline): Day 1 baseline (4th day after induction); for OG1 (OGTT 60 min), Day 1 Readings (baseline) / OG2 (OGTT 120 min), Day 1 Readings (baseline): Day 1 baseline; for Day 30 FBG: 30 days
Procedure: This study was done at the Department of Pharmacology, Kasturba Medical College, […] Academy of Higher Education, […]. The diabetic model that we have used in this study was STZ-NA model. DM was induced in male Wistar rats by giving NA and STZ injections, intraperitoneally. […] Citrate buffer (0.1 M), which has been used as solvent for mixing STZ, was made by dissolving solution of trisodium citrate (294.10 mg in 100 mL of distilled water) with citric acid solution (210.10 mg in 100 mL of distilled water) to attain pH 4.5. Ice was kept around the glass beaker containing Citrate buffer to maintain citrate buffer at lower temperatures. Normal control rats were administered with Citrate buffer alone intraperitoneally. […] Wistar rats were divided into seven groups, each group had six rats. Treatment for all the groups was started on the 4th day after diabetes induction procedure. The same was considered as Day 1 for treatment and continued for 30 days. The animals were treated for 30 days. The treatment schedule of various groups were as follows: Normal control (NC) (1 mL of 1% Tween 80, per oral), Diabetic control (DC) (1 mL of 1% Tween 80, per oral), two Standard control groups were treated with GLIB (5 mg/kg, per oral) and MET (500 mg/kg, per oral), two test groups were treated with bio-BTE (30 mg/kg, per oral and 60 mg/kg, per oral) and one test group was treated with RTE (30 mg/kg, per oral). The vehicle used for the study in all the groups were 1% Tween 80. Oral feeding of drugs was done using steel oral gavage tube (16 G, 7.6 cm). During the treatment period, rats also received standard pelleted chow (VRK Nutritional solutions) and water ad libitum during treatment. […] FBG, OG1 and OG2 values were estimated from blood drops that were obtained from rat tail tip using Accu-Check Glucometer. […] These serum samples were stored at -80 °C before insulin levels were assayed using DRG Rat insulin ELISA Kit.

[3] = tested on: streptozotocin-nicotinamide induced type 2 diabetic Wistar rats; test: HOMA2 calculator: insulin resistance, insulin sensitivity, beta-cell function, and their correlation with serum insulin; format: in vivo; settings: 30 days, mean ± SD
Procedure: FBG, OG1 and OG2 values were estimated from blood drops that were obtained from rat tail tip using Accu-Check Glucometer. […] These serum samples were stored at −80 °C before insulin levels were assayed using DRG Rat insulin ELISA Kit. […] One-way ANOVA followed by post hoc analysis with Tukey test was conducted to evaluate statistically significant differences in the study variables between treatment groups. Pearson two-tailed correlation analysis was used to evaluate the correlation between serum insulin and IR; serum insulin and %B; and serum insulin & %S. SPSS version 21.0 was used to conduct statistical analysis in this study.

Body weight measurement = format: in vivo, Wistar rats; settings: for Body weight, Day 1: Day 1 of treatment (baseline), in g (unit assumed); for Body weight, Day 1 / Body weight, Day 30: mean ± SD; for Percentage change in body weight on Day 30 when compared to baseline, Gain (+)/Loss (−) / Body weight, Day 30: 30 days
Procedure: Wistar rats were divided into seven groups, each group had six rats. Treatment for all the groups was started on the 4th day after diabetes induction procedure. The same was considered as Day 1 for treatment and continued for 30 days. The animals were treated for 30 days. The treatment schedule of various groups were as follows: Normal control (NC) (1 mL of 1% Tween 80, per oral), Diabetic control (DC) (1 mL of 1% Tween 80, per oral), two Standard control groups were treated with GLIB (5 mg/kg, per oral) and MET (500 mg/kg, per oral), two test groups were treated with bio-BTE (30 mg/kg, per oral and 60 mg/kg, per oral) and one test group was treated with RTE (30 mg/kg, per oral). The vehicle used for the study in all the groups were 1% Tween 80. Oral feeding of drugs was done using steel oral gavage tube (16 G, 7.6 cm). During the treatment period, rats also received standard pelleted chow (VRK Nutritional solutions) and water ad libitum during treatment.
Body weight of the rats was measured before induction (on the day of induction), on Day 1 of treatment and also on Day 30 of treatment. Percentage change in body weight was calculated using the formula (BodyweightonDay30oftreatment−BodyweightonDay1oftreatment)/(BodyweightonDay1oftreatment)×100

## COc1ccc(Cl)cc1C(=O)NCCc1ccc(S(=O)(=O)NC(=O)NC2CCCCC2)cc1 [GLIB, Glibenclamide]
[1]; GLIB 5 mg/kg per oral
  Day 30 Serum Insulin: 145.68 ± 41.06^abd pmol/L
[2]; GLIB 5 mg/kg per oral daily
  OG1 (OGTT 60 min), Day 29 Readings (after treatment): 154.17 ± 76.55^b mg/dL
  OG2 (OGTT 120 min), Day 29 Readings (after treatment): 117.50 ± 16.21^b mg/dL
  FBG, Day 29 Readings (after treatment): 95.17 ± 27.97^b mg/dL
[2]; GLIB 5 mg/kg per oral group
  FBG, Day 1 Readings (baseline): 130.5 ± 5.43^a mg/dL
  OG1 (OGTT 60 min), Day 1 Readings (baseline): 420.67 ± 21.71^a mg/dL
  OG2 (OGTT 120 min), Day 1 Readings (baseline): 358.50 ± 34.65^a mg/dL
[2]; GLIB 5 mg/kg per oral
  Day 30 FBG: 96.67 ± 26.49^b mg/dL
[3]; GLIB 5 mg/kg per oral
  Day 30 Beta cell function (%B): 183.13 ± 68.69^b %
  Day 30 Insulin Resistance (IR): 2.70 ± 0.84^abd
  Day 30 Insulin Sensitivity (%S): 41.08 ± 16.03%
Body weight measurement; GLIB 5 mg/kg per oral group
  Body weight, Day 1: 179.67 ± 3.08
Body weight measurement; GLIB 5 mg/kg per oral
  Percentage change in body weight on Day 30 when compared to baseline, Gain (+)/Loss (−): +23%
  Body weight, Day 30: 221 ± 8.07^abcd

## CN(C)C(=N)N=C(N)N [MET, Metformin]
[1]; MET 500 mg/kg per oral
  Day 30 Serum Insulin: 35.63 ± 16.81^c pmol/L
[2]; MET 500 mg/kg per oral daily
  OG1 (OGTT 60 min), Day 29 Readings (after treatment): 329.33 ± 12.91^abd mg/dL
  OG2 (OGTT 120 min), Day 29 Readings (after treatment): 203.67 ± 58.96^b mg/dL
  FBG, Day 29 Readings (after treatment): 144.83 ± 53.86^b mg/dL
[2]; MET 500 mg/kg per oral group
  FBG, Day 1 Readings (baseline): 128.33 ± 5.32^a mg/dL
  OG1 (OGTT 60 min), Day 1 Readings (baseline): 421.67 ± 39.52^a mg/dL
  OG2 (OGTT 120 min), Day 1 Readings (baseline): 301.50 ± 64.05^a mg/dL
[2]; MET 500 mg/kg per oral
  Day 30 FBG: 141.00 ± 52.33^abcd mg/dL
[3]; MET 500 mg/kg per oral
  Day 30 Beta cell function (%B): 42.03 ± 37.09^acd %
  Day 30 Insulin Resistance (IR): 0.73 ± 0.31^bc
  Day 30 Insulin Sensitivity (%S): 160.70 ± 68.64^abcd %
Body weight measurement; MET 500 mg/kg per oral group
  Body weight, Day 1: 183.67 ± 7.82
Body weight measurement; MET 500 mg/kg per oral
  Percentage change in body weight on Day 30 when compared to baseline, Gain (+)/Loss (−): −12.07%
  Body weight, Day 30: 161.5 ± 7.74^acd
